In US11130769B2 (Prelude Therapeutics Incorporated, priority 2018, dated 2021):
Like-named read-outs stand apart in the source and are kept apart here.

Assays:
H929 cells = test: Cell viability assay (H929 10 FBS); assay type: cell-based; conditions: Homo sapiens, NCI-H929, 24 hours, read-out: H929_10FBS IC50
Method in brief: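 H929 cells, 4000/well, in RPMI 1640 with 10% FBS, sodium pyruvate, HEPES and glucose were exposed to compound 24 h at 37 °C. Viability read as luminescence after 30-60 min at RT with CellTiter-Glo or ATPlite 1 Step.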

MCL-1 = MCL-1 (Homo sapiens (Human), UniProt Q07820); test: Cell free Mcl-1:Bim affinity assay (fluorescence polarization competition); assay type: binding; conditions: 15 nM MCL-1, 5 nM FITC-Bim, 1 hour at room temperature, read-out: BIM_Ki
MCL-1, sequence (Q07820 whole entry): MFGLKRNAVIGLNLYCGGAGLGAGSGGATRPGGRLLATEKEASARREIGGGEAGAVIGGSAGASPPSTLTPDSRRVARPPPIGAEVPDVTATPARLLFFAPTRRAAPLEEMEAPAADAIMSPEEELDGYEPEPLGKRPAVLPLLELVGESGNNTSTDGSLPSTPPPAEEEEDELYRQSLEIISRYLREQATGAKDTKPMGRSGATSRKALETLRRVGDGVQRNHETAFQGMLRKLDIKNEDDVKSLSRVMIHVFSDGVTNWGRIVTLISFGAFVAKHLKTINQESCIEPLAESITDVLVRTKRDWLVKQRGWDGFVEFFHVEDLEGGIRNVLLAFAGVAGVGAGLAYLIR
Method in brief: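 Compounds competed with FITC-labelled Bim peptide (5 nM) for MCL-1 (15 nM) in HEPES/NaCl buffer with 1% DMSO, 1 h at room temperature. Fluorescence polarization (535 nm emission) gave % inhibition versus DMSO and positive controls; IC50 from 10-point curves, converted to Ki by the Nikolovska-Coleska equation.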

Row | IC50 (H929 cells) | Ki (MCL-1; class symbols) | Ki (MCL-1; numeric values) | Structure (SMILES)
1 | < 500 nM | < 1 nM |  | CC1(C)OC/C=C/[C@H](OC(=O)N2CC(F)C2)[C@@H]2CC[C@H]2CN2C[C@@]3(CCCc4cc(Cl)ccc43)COc3ccc(cc32)S(=O)(=O)NC1=O [Example 165, [(3R,6R,7S,8E,22S)-6′-Chloro-12,12-dimethyl-13,15,15-trioxo-spiro[11,20-dioxa-15-thia-1,14-diazatetracyclo[14.7.2.03,6.019,24]pentacosa-8,16,18,24-tetraene-22,1′-tetralin]-7-yl] 3-fluoroazetidine-1-carboxylate]
2 | < 500 nM | < 1 nM |  | CO[C@@H]1CCN(C(=O)O[C@H]2/C=C/CN(C)C(C)(C)C(=O)NS(=O)(=O)c3ccc4c(c3)N(C[C@@H]3CC[C@H]32)C[C@@]2(CCCc3cc(Cl)ccc32)CO4)C1 [Example 215, [(3R,6R,7S,8E,22S)-6′-Chloro-11,12,12-trimethyl-13,15,15-trioxo-spiro[20-oxa-15-thia-1,11,14-triazatetracyclo[14.7.2.03,6.019,24]pentacosa-8,16,18,24-tetraene-22,1′-tetralin]-7-yl] (3R)-3-methoxypyrrolidine-1-carboxylate]
3 | > 1000 nM |  | 9 nM | O=C1Cc2cccc(c2)SC[C@@H]2CCC2CN2CC3(CCCc4cc(Cl)ccc43)COc3ccc(cc32)S(=O)(=O)N1 (stereo partly drawn) [Example 25, (1S,1′R,2′R)-6-Chloro-3,4-dihydro-2H-spiro[naphthalene-1,3′-5,10-dithia-9-aza-1(5,7)-benzo[b][1,4]oxazepina-6(1,3)-benzena-3(1,2)-cyclobutanacyclodecaphan]-8′-one 10′,10′-dioxide]
4 | < 500 nM | < 1 nM |  | CO[C@@H]1CCN(C(=O)O[C@H]2/C=C/COC(C)(C)C(=O)NS(=O)(=O)c3ccc4c(c3)N(C[C@@H]3CC[C@H]32)C[C@@]2(CCOc3cc(Cl)ccc32)CO4)C1 [Example 266, [(3R,6R,7S,8E,22S)-7′-Chloro-12,12-dimethyl-13,155-trioxo-spiro[11,20-dioxa-15-thia-1,14-diazatetracyclo[14.7.2.03,6.019,24]pentacosa-8,16,18,24-tetraene-22,4′-chromane]-7-yl] (3R)-3-methoxypyrrolidine-1-carboxylate]
5 | > 1000 nM | 1 to 100 nM |  | CO[C@@H]1/C=C/CN(C(C)=O)[C@H](C)C(=O)NS(=O)(=O)c2ccc3c(c2)N(C[C@@H]2CC[C@H]21)C[C@@]1(CCCc2cc(Cl)ccc21)CO3 [Example 133, (3R,6R,7R,8E,12R,22S)-6′-Chloro-7-methoxy-11-acetyl-12-methyl-15,15-dioxo-spiro[20-oxa-15-thia-1,11,14-triazatetracyclo[14.7.2.03,6.019,24]pentacosa-8,16(25),17,19(24)-tetraene-22,1′-tetralin]-13-one]
6 | > 1000 nM | 1 to 100 nM |  | CO[C@@H]1/C=C/CN(C)[C@@H](C(C)C)C(=O)NS(=O)(=O)c2ccc3c(c2)N(C[C@@H]2CC[C@H]21)C[C@@]1(CCCc2cc(Cl)ccc21)CO3 [Example 129, (3R,6R,7R,8E,12S,22S)-6′-Chloro-7-methoxy-11-methyl-12-isopropyl-15,15-dioxo-spiro[20-oxa-15-thia-1,11,14-triazatetracyclo[14.7.2.03,6.019,24]pentacosa-8,16,18,24-tetraene-22,1′-tetralin]-13-one]
7 | < 500 nM | < 1 nM |  | CN(C)C(=O)O[C@H]1/C=C/CNC(C)(C)C(=O)NS(=O)(=O)c2ccc3c(c2)N(C[C@@H]2CC[C@H]21)C[C@@]1(CCCc2cc(Cl)ccc21)CO3 [Example 209, [(3R,6R,7S,8E,22S)-6′-Chloro-12,12-dimethyl-13,15,15-trioxo-spiro[20-oxa-15-thia-1,11,14-triazatetracyclo[14.7.2.03,6.019,24]pentacosa-8,16,18,24-tetraene-22,1′-tetralin]-7-yl] N,N-dimethylcarbamate]
8 | < 1000 nM | < 1 nM |  | CC1(C)OC/C=C/[C@H](OC(=O)NCCN2CCC(O)CC2)[C@@H]2CC[C@H]2CN2C[C@@]3(CCCc4cc(Cl)ccc43)COc3ccc(cc32)S(=O)(=O)NC1=O [Example 150, [(3R,6R,7S,8E,22S)-6′-Chloro-12,12-dimethyl-13,15,15-trioxo-spiro[11,20-dioxa-15-thia-1,14-diazatetracyclo[14.7.2.03,6.019,24]pentacosa-8,16,18,24-tetraene-22,1′-tetralin]-7-yl] N-[2-(4-hydroxy-1-piperidyl)ethyl]carbamate]
9 | < 500 nM | < 1 nM |  | CN(C(=O)O[C@H]1/C=C/CN(C)C(C)(C)C(=O)NS(=O)(=O)c2ccc3c(c2)N(C[C@@H]2CC[C@H]21)C[C@@]1(CCCc2cc(Cl)ccc21)CO3)[C@H]1CCOC1 [Example 226, [(3R,6R,7S,8E,22S)-6′-Chloro-11,12,12-trimethyl-13,15,15-trioxo-spiro[20-oxa-15-thia-1,11,14-triazatetracyclo[14.7.2.03,6.019,24]pentacosa-8,16,18,24-tetraene-22,1′-tetralin]-7-yl] N-methyl-N-[(3S)-tetrahydrofuran-3-yl]carbamate]
10 | > 1000 nM | 1 to 100 nM |  | CO[C@H]1/C=C/CC[C@@H](C)C(=O)NS(=O)(=O)c2ccc3c(c2)N(C[C@@H]2CC[C@H]21)C[C@@]1(CCCc2cc(Cl)ccc21)CO3 [Example 81, (3R,6R,7S,8E,12R,22S)-6′-Chloro-7-methoxy-12-methyl-15,15-dioxo-spiro[20-oxa-15-thia-1,14-diazatetracyclo[14.7.2.03,6.019,24]pentacosa-8,16(25),17,19(24)-tetraene-22,1′-tetralin]-13-one]
11 | < 1000 nM | < 1 nM |  | CN(C)C(=O)O[C@@H]1/C=C/COC2(CC2)C(=O)NS(=O)(=O)c2ccc3c(c2)N(C[C@@H]2CC[C@H]21)C[C@@]1(CCCc2cc(Cl)ccc21)CO3 [Example 39, [(3R,6R,7R,8E,22S)-6′-Chloro-12,12-ethylene-13,15,15-trioxo-spiro[11,20-dioxa-15-thia-1,14-diazatetracyclo[14.7.2.03,6.019,24]pentacosa-8,16,18,24-tetraene-22,1′-tetralin]-7-yl] N,N-dimethylcarbamate]
12 | < 500 nM | 1 to 100 nM |  | CC1(C)OC/C=C/[C@H](OCCN2CC[C@H](F)C2)[C@@H]2CC[C@H]2CN2C[C@@]3(CCCc4cc(Cl)ccc43)COc3ccc(cc32)S(=O)(=O)NC1=O [Example 265, (3R,6R,7S,8E,22S)-6′-Chloro-7-[2-[(3S)-3-fluoropyrrolidin-1-yl]ethoxy]-12,12-dimethyl-15,15-dioxo-spiro[11,20-dioxa-15-thia-1,14-diazatetracyclo[14.7.2.03,6.019,24]pentacosa-8,16,18,24-tetraene-22,1′-tetralin]-13-one]
13 | < 500 nM | < 1 nM |  | CCOC1CN(C(=O)O[C@H]2/C=C/COC(C)(C)C(=O)NS(=O)(=O)c3ccc4c(c3)N(C[C@@H]3CC[C@H]32)C[C@@]2(CCCc3cc(Cl)ccc32)CO4)C1 [Example 57, [(3R,6R,7S,8E,22S)-6′-Chloro-12,12-dimethyl-13,15,15-trioxo-spiro[11,20-dioxa-15-thia-1,14-diazatetracyclo[14.7.2.03,6.019,24]pentacosa-8,16,18,24-tetraene-22,1′-tetralin]-7-yl] 3-ethoxyazetidine-1-carboxylate]
14 | < 500 nM | < 1 nM |  | CNC1CN(C(=O)O[C@H]2/C=C/COC(C)(C)C(=O)NS(=O)(=O)c3ccc4c(c3)N(C[C@@H]3CC[C@H]32)C[C@@]2(CCCc3cc(Cl)ccc32)CO4)C1 [Example 156, [(3R,6R,7S,8E,22S)-6′-Chloro-12,12-dimethyl-13,15,15-trioxo-spiro[11,20-dioxa-15-thia-1,14-diazatetracyclo[14.7.2.03,6.019,24]pentacosa-8,16,18,24-tetraene-22,1′-tetralin]-7-yl] 3-(methylamino)azetidine-1-carboxylate]
15 | < 500 nM | < 1 nM |  | CCNC(=O)O[C@H]1/C=C/CN(C)C(C)(C)C(=O)NS(=O)(=O)c2ccc3c(c2)N(C[C@@H]2CC[C@H]21)C[C@@]1(CCCc2cc(Cl)ccc21)CO3 [Example 204, [(3R,6R,7S,8E,22S)-6′-Chloro-11,12,12-trimethyl-13,15,15-trioxo-spiro[20-oxa-15-thia-1,11,14-triazatetracyclo[14.7.2.03,6.019,24]pentacosa-8,16,18,24-tetraene-22,1′-tetralin]-7-yl] N-ethylcarbamate]
16 | < 500 nM | < 1 nM |  | CC1(C)OC/C=C/[C@H](OC(=O)N2CCN3CCOC[C@H]3C2)[C@@H]2CC[C@H]2CN2C[C@@]3(CCCc4cc(Cl)ccc43)COc3ccc(cc32)S(=O)(=O)NC1=O [Example 171, [(3R,6R,7S,8E,22S)-6′-Chloro-12,12-dimethyl-13,15,15-trioxo-spiro[11,20-dioxa-15,6-thia-1,14-diazatetracyclo[14.7.2.03,6.019,24]pentacosa-8,16,18,24-tetraene-22,1′-tetralin]-7-yl](9aS)-3,4,6,7,9,9a-hexahydro-1H-pyrazino[2,1-c][1,4]oxazine-8-carboxylate]
17 | > 1000 nM | 1 to 100 nM |  | CO[C@@H]1/C=C/CN[C@@H](C(C)C)C(=O)NS(=O)(=O)c2ccc3c(c2)N(C[C@@H]2CC[C@H]21)C[C@@]1(CCCc2cc(Cl)ccc21)CO3 [Example 128, (3R,6R,7R,8E,12S,22S)-6′-Chloro-7-methoxy-12-isopropyl-15,15-dioxo-spiro[20-oxa-15-thia-1,11,14-triazatetracyclo[14.7.2.03,6.019,24]pentacosa-8,16,18,24-tetraene-22,1′-tetralin]-13-one]
